Assay results: publication PMC6332312, “N-Monosubstituted Methoxy-oligo(ethylene glycol) Carbamate Ester Prodrugs of Resveratrol” (Molecules, 2015)

Columns and labels:
[1] = Hydrolysis in PBS 0.1 M at pH 6.8 (intestinal pH), 37 °C; type: physicochemical; conditions: pH 6.8, 37 °C; for half-life at 5 µM: 0.1 M PBS buffer, 5 µM compound; for kII (hydrolysis rate constant, di- to monosubstituted) / kIII (hydrolysis rate constant, tri- to disubstituted): pseudo-first order fit
Procedure: (§1) Kinetic analysis of the data was performed by assuming that hydrolysis to resveratrol occurred via consecutive losses of the three protecting groups in pseudo-first order processes and by considering each pair of isomeric intermediates (potentially) resulting from the first and second hydrolysis steps as a single species, i.e. the two monosubstituted and the two disubstituted intermediates were handled as species I and II, respectively (Scheme 3).
As hydrolysis proceeds resveratrol will eventually form with the kinetics dictated by the constants, up to 100% conversion. The fit of the experimental data was obtained using a set of equations analogous to those utilized by Kozerski et al. and in our previous work.
The chemical stability of all new compounds was tested in aqueous media imitating gastric (0.1 N HCl, NormaFix) and intestinal (0.1 M PBS buffer, at pH 6.8) pH conditions. A 5 µM solution of the compound was prepared from a 5 mM stock solution in DMSO, and incubated at 37 °C for 24 h; samples withdrawn at different times were analyzed by HPLC-UV. Hydrolysis products were identified by HPLC/ESI-MS analysis of selected samples. Non-linear curve fitting was performed using Origin 8.0 data analysis software, using the equations described in [61, 62].

[2] = Pharmacokinetic study after single intragastric bolus to rats; type: in vivo, male Wistar rats; conditions: rat, single intragastric bolus 88 µmol/kg; for Tmax: male, Wistar, whole blood, po, 88 umol/kg, read-out: time of peak blood level after administration (converted); for peak blood concentration of prodrug (absorption): N = 3
Procedure: All the N-monosubstituted methoxy-oligo(ethylene glycol) carbamate ester prodrugs were tested for their in vivo absorption and metabolism. Pharmacokinetic studies were performed with rats, and each compound was administered as a single intragastric bolus, in an equimolar dose/kg body weight (88 µmol/kg). Blood samples were taken at different time points, treated as described in the Materials and Methods section and analyzed.
(§2) Before starting the treatment, 4,4′-dihydroxybiphenyl was added as internal standard to a carefully-measured blood volume (25 µM final concentration). Blood was then stabilized with a freshly-prepared 10 mM solution of ascorbic acid (0.1 vol) and acidified with 0.6 M acetic acid (0.1 vol); after mixing, an excess of acetone (4 vol) was added, followed by sonication (2 min) and centrifugation (12,000× g, 7 min, 4 °C). The supernatant was finally collected and stored at −20 °C. Before analysis, acetone was allowed to evaporate at room temperature using a Univapo 150H (UniEquip, Martinsried, Germany) vacuum concentrator centrifuge, and up to 40 μL of CH3CN were added to precipitate residual proteins. After centrifugation (12,000× g, 5 min, 4 °C), cleared samples were directly subjected to HPLC-UV analysis. Metabolites and hydrolysis products were identified by comparison of chromatographic retention time with true samples.
Derivatives 2–4 were administered to overnight-fasted male Wistar rats from the facility of the Department of Biomedical Sciences, University of Padova, as a single intragastric dose (88 µmol/kg, dissolved in 250 µL DMSO) delivered with a commercial stainless steel feeding tube (www.2biol.com) to have a precise starting time. Wistar rats are commonly used for such studies (e.g., [60]). Relatively young adults (3–5 months) were used in order to have a fully developed metabolism as well as a body weight (300–400 g) which would limit the amount of synthetic compound to be used.
Blood samples were obtained by the tail bleeding technique: before drug administration, rats were anesthetized with isoflurane and the tip of the tail was cut off; blood samples (80–100 µL each) were then taken from the tail tip at different time points after drug administration. Blood was collected in heparinized tubes, kept in ice and treated as described above within 10 min. All experiments involving animals were performed with the permission and supervision of the University of Padova Ethical Committee for Experimentation on Animals (CEASA) and Central Veterinary Service, in compliance with Italian Law DL 116/92, embodying EU Directive 86/609. Significance in comparisons was assessed using the Wilcoxon Rank Test.

[3] = Stability (hydrolysis) in rodent whole blood, 37 °C; type: in vitro ADME; conditions: rat blood; for kIII (hydrolysis rate constant, tri- to disubstituted): pseudo-first order fit; for half-life at 5 µM: whole blood, 5 µM compound
Procedure: as §1
Rats were anesthetized and blood was withdrawn from the jugular vein, heparinised and transferred into tubes containing EDTA. Blood samples (1 mL) were spiked with 5 µM compound (dilution from a 5 mM stock solution in DMSO), and incubated at 37 °C for 4 h (the maximum period allowed by blood stability). Aliquots were taken after 10 min, 30 min, 1 h, 2 h and 4 h and treated as described below (blood sample treatment and analysis). Cleared blood samples were finally subjected to HPLC-UV analysis.
as §2

| Structure (SMILES) | half-life at 5 µM [1] | kII (hydrolysis rate constant, di- to monosubstituted) [1] | kIII (hydrolysis rate constant, tri- to disubstituted) [1] | Tmax [2] | appearance of resveratrol, derivatives or metabolites (stilbene derivatives) in blood samples [2] | peak blood concentration of prodrug (absorption) [2] | kIII (hydrolysis rate constant, tri- to disubstituted) [3] | half-life at 5 µM [3] |
| --- | --- | --- | --- | --- | --- | --- | --- | --- |
| COCCOCCOCCOCCNC(=O)Oc1ccc(/C=C/c2cc(OC(=O)NCCOCCOCCOCCOC)cc(OC(=O)NCCOCCOCCOCCOC)c2)cc1 [Compound 3, (E)-5-(4-(5,8,11-Tetraoxatridecan-13-ylcarbamate)styryl)-1,3-phenylene bis(2,5,8,11-tetraoxatridecan-13-ylcarbamate)] | 210 min | 0.042 ± 0.005 h⁻¹ | 0.134 ± 0.007 h⁻¹ | 10 min | measurable levels | 0.3 µM | 2.0 ± 0.2 h⁻¹ | 18 min |
| COCCOCCOCCOCCOCCOCCNC(=O)Oc1ccc(/C=C/c2cc(OC(=O)NCCOCCOCCOCCOCCOCCOC)cc(OC(=O)NCCOCCOCCOCCOCCOCCOC)c2)cc1 [Compound 4, (E)-5-(4-(2,5,8,11,14,17-Hexaoxanonadecan-19-ylcarbamate)styryl)-1,3-phenylene bis(2,5,8,11,14,17-hexaoxanonadecan-19-ylcarbamate)] | 270 min | 0.051 ± 0.001 h⁻¹ | 0.158 ± 0.002 h⁻¹ | 10 min | measurable levels | 0.1 µM | 1.25 ± 0.08 h⁻¹ | 30 min |
| COCCOCCOCCNC(=O)Oc1ccc(/C=C/c2cc(OC(=O)NCCOCCOCCOC)cc(OC(=O)NCCOCCOCCOC)c2)cc1 [Compound 2, (E)-5-(4-(2-(2-(2-Methoxyethoxy)ethoxy)ethyl)carbamate)-1,3-phenylene bis((2-(2-(2-methoxyethoxy)ethoxy)ethyl)carbamate)] | 360 min | 0.030 ± 0.002 h⁻¹ | 0.104 ± 0.002 h⁻¹ |  | did not result in the appearance of detectable amounts |  | 1.47 ± 0.08 h⁻¹ | 30 min |
